Assay results published in patent US20150126368A1, “METHOD OF PROVIDING PLANT WITH STRESS RESISTANCE” (Nippon Soda Co., Ltd., priority 2012, published 2015).

Tested on: tomato yellow leaf curl virus (TYLCV)
Test: Test for symptom relief effects against tomato yellow leaf curl virus disease
Assay type: in vivo
Details: for Onset percentage(%): tomato graft-inoculated, sprayed 4 times; for Onset percentage(%) / Onset inhibition percentage(%): 25 days; for Onset inhibition percentage(%): vs solvent DMF only; for Expectation value(%): expectation value of onset inhibition percentage
Procedure: N,N-dimethylformamide based solutions were prepared according to the formulations shown in Table 18 to give chemical liquids for the tests.
Tomato nursery plants (breed: Momotaro) grown up to the 8 leaf stage in a greenhouse were prepared.
Tomato nursery plants suffering from tomato yellow leaf curl virus (TYLCV) were used as inoculation sources.
A diseased plant was obliquely cut in round slices at the stem, and graft-inoculated to a tomato nursery plant. In order to prevent dryness, parafilm was wrapped around the grafted portion for protection.
After the graft inoculation, the above chemical solution was sprayed on the stem and leaf part of the tomato nursery plant in a sufficient amount. Then, the above chemical solution was sprayed 3 times at intervals of about one week in a sufficient amount. Symptoms of tomato yellow leaf curl disease were investigated at an elapsed time of 25 days.
Symptoms were evaluated by 5 levels of onset indices of 0 (with no onset) to 4 (fulminant).
Onset inhibition percentages as compared with a region treated with solvent DMF only (Chemical solution 3) were computed by the following formula.
Onset inhibition percentage=(onset index of region treated with solvent only)−(onset index of each treatment region))/(onset index of region treated with solvent only)×100
Further, the expectation values of onset inhibition percentages were computed based on the Colby's equation.
The Colby's equation is E=M+N−MN/100. In the equation, E represents the expectation value of an onset inhibition percentage (%), and M represents an onset inhibition percentage (%) calculated from measurements when the substance (A1) is used alone, and N represent an onset inhibition percentage (%) calculated from measurements when the substance (A2) is used alone.

`CCCCCCCCCCCCCCCC(=O)OC[C@H](O)[C@H]1OC(=O)C(O)=C1O` [ascorbyl palmitate] was tested, and the “Onset percentage(%)” value (500 ppm alone) was 30%, the “Onset inhibition percentage(%)” value (500 ppm alone) was 40% and the “Onset percentage(%)” value (1000 ppm alone) was 20%. The “Onset inhibition percentage(%)” value (1000 ppm alone) was 60%, the “Expectation value(%)” value (500 ppm alone) was 40% and the “Expectation value(%)” value (1000 ppm alone) was 60%.
